In patent US20220071932A1, “Compositions and Methods Against Stress-Induced Affective Disorders and Their Associated Symptoms” (The Trustees of Columbia University in the City of New York, priority 2019, published 2022):

Assays:
Format in all cases: in vivo
129S6/SvEv mice [1] = experiment: Anxiety-like behavior, summary of anxiety tests (OF, MB, EPM); settings: Extinction (5 min after re-exposure 1); dose 20 mg/kg
Method: (§1) Testing was performed as previously described (47). Briefly, the maze is a plus-cross-shaped apparatus consisting of four arms, two open and two enclosed by walls, linked by a central platform at a height of 50 cm from the floor. Mice were individually placed in the center of the maze facing an open arm and were allowed to explore the maze for 5 min. The time spent in and the number of entries into the open arms was used as an anxiety index. Videos were scored using ANY-maze behavior tracking software (Stoelting, Wood Dale, Ill.).
(§2) The OF assay was administered as previously described (47). Briefly, motor activity was quantified in 4 Plexiglas open field boxes 43×43 cm^2 (MED Associates, Georgia, Vt.). Two sets of 16 pulse-modulated infrared photobeams on opposite walls 2.5-cm apart recorded x-y ambulatory movements. Activity chambers were computer interfaced for data sampling at 100-ms resolution. The computer defined grid lines that dividing center and surround regions, with the center square consisting of four lines 11 cm from the wall.
(§3) The MB assay was conducted in a clean cage (10.5 in×5.5 in) containing soft pliable Beta Chip bedding (Northeastern Products Corp, Warrensburg, N.Y.). The cage contained 16 marbles set up in 4 rows of 4 across. Mice were given 30 minutes to explore and bury. At the end of the assay, the percentage of marbles buried was calculated.

129S6/SvEv mice [2] = experiment: Marble burying (MB); settings: for p, Fisher's PLSD Saline vs. drug, MB Marbles Buried (no.): drug 5 minutes after stress, FIG. 2K; for number of marbles buried: vs saline
Method: as §3

129S6/SvEv mice [3] = experiment: Open field (OF)
Method: as §2

129S6/SvEv mice [4] = experiment: Novelty suppressed feeding (NSF); settings: for Novelty Suppressed Feeding, Latency to feed in OF (sec), p (Fisher's LSD): FIG. 8P
Method: Testing was performed as previously described (47). Briefly, the NSF testing apparatus consisted of a plastic box (50×50×20 cm). The floor of which was covered with approximately 2 cm of wooden bedding and the arena was brightly lit (approximately 1000 lux). Mice were food restricted for 24 h prior to testing. At the time of testing, a single pellet of food (regular chow) was placed on a white paper platform positioned in the center of the box. Each animal was placed in a corner of the box, and a stopwatch was immediately started. The latency of the mice to begin eating in the arena was recorded Immediately after the latency was recorded, the food pellet was removed from the arena. The mice were then placed back into their home cage. The latency to eat and the amount of food consumed in 5 min were measured (home cage consumption), followed by an assessment of post-restriction weight. A Kaplan-Meier survival analysis was used due to the lack of normal distribution of data. The Mantel-Cox log-rank test was used to evaluate differences between the experimental groups.

129S6/SvEv mice [5] = experiment: Elevated plus maze (EPM); settings: for distance travelled in the EPM / time spent in the open arms and center of the EPM: (R,S)-ketamine 30 mg/kg, FENM 10, 20 or 30 mg/kg
Method: as §1

[6] = 1 week prior to CFC, (R,S)-ketamine 30 mg/kg, FENM 10, 20 or 30 mg/kg, vs saline
[7] = 5 min prior to CFC, (R,S)-ketamine 30 mg/kg, FENM 20 mg/kg, vs saline
[8] = Fisher's PLSD, drug 5 minutes after stress, (R,S)-ketamine 30 mg/kg vs. FENM 20 mg/kg
[9] = Fisher's PLSD, drug 5 minutes after stress, FENM 20 mg/kg, (R,S)-ketamine 30 mg/kg
[10] = Saline vs. FENM (20 mg/kg), cohort 5 min before re-exposure 1, FIG. 9L
[11] = non-stressed mice, FENM 20 mg/kg 1 hour before the start of the OF, vs saline
[12] = 5 min after context re-exposure 1, (R,S)-ketamine 30 mg/kg, FENM 20 mg/kg, vs saline
[13] = 5 minutes after CFC, re-exposure 1 day after training, (R,S)-ketamine 30 mg/kg, FENM 20 mg/kg, vs saline
[14] = 5 minutes prior to re-exposure 1, (R,S)-ketamine 30 mg/kg, FENM 20 mg/kg, vs saline
[15] = 5 minutes after CFC, re-exposure 5 days after training, vs saline

NC12CC3CC(C1)CC(CCF)(C3)C2 [FENM, 1-amino-3-fluoroethyl-adamantane]
Behavior: Anxiety-like (129S6/SvEv mice [1]): ↓
p, Fisher's PLSD Saline vs. drug, MB Marbles Buried (no.) (129S6/SvEv mice [2]; 10 mg/kg): 0.0737
p, Fisher's PLSD Saline vs. drug, MB Marbles Buried (no.) (129S6/SvEv mice [2]; 30 mg/kg): 0.0097
number of marbles buried (129S6/SvEv mice [2]; 5 minutes after CFC, re-exposure 5 days after training, FENM 20 and 30 mg/kg, (R,S)-ketamine 30 mg/kg): decreased the number of marbles buried
p, Fisher's PLSD Saline vs. drug, MB Marbles Buried (no.) (129S6/SvEv mice [2]; dose (20)): 0.0002
number of marbles buried (129S6/SvEv mice [2]; non-stressed mice, FENM 20 mg/kg 1 hour before the start of the OF): did not affect
p, Marbles Buried (no.), MB, Saline vs. FENM (129S6/SvEv mice [2]; t-test, Baseline, anxiety cohort, FENM 20 mg/kg, FIG. 7F): 0.4657
distance travelled in the OF (129S6/SvEv mice [3]; [6]): did not alter
time spent in the center of the OF arena (129S6/SvEv mice [3]; [6]): did not alter
time spent in the center of the OF (129S6/SvEv mice [3]; 5 min after context re-exposure 1, FENM 20 mg/kg, vs saline): significantly increased
distance travelled in the OF (129S6/SvEv mice [3]; [7]): did not alter
time spent in the center of the OF arena (129S6/SvEv mice [3]; [7]): did not alter
Open Field, Distance Travelled Min 1 (cm), p (Fisher's LSD) (129S6/SvEv mice [3]; (R,S)-ketamine (30 mg/kg) vs. FENM (20 mg/kg), cohort 5 min before re-exposure 1, FIG. 9L): 0.0129
p, Distance Travelled (cm), OF, (R,S)-ketamine vs. FENM (129S6/SvEv mice [3]; Fisher's PLSD after RMANOVA, drug 5 minutes after stress, (R,S)-ketamine 30 mg/kg vs. FENM 20 mg/kg, FIG. 3L): 0.8632
p, Distance Travelled (cm), OF, Saline vs. drug (129S6/SvEv mice [3]; Fisher's PLSD after RMANOVA, drug 5 minutes after stress, FENM 20 mg/kg, (R,S)-ketamine 30 mg/kg, FIG. 3L): 0.7967
p, Distance Travelled Min 1 (cm), OF, (R,S)-ketamine vs. FENM (129S6/SvEv mice [3]; [8]): 0.5911
p, Distance Travelled Min 2 (cm), OF, (R,S)-ketamine vs. FENM (129S6/SvEv mice [3]; [8]): 0.8997
p, Distance Travelled Min 3 (cm), OF, (R,S)-ketamine vs. FENM (129S6/SvEv mice [3]; [8]): 0.5565
p, Distance Travelled Min 4 (cm), OF, (R,S)-ketamine vs. FENM (129S6/SvEv mice [3]; [8]): 0.7043
p, Distance Travelled Min 5 (cm), OF, (R,S)-ketamine vs. FENM (129S6/SvEv mice [3]; [8]): 0.5847
p, Distance Travelled Min 6 (cm), OF, (R,S)-ketamine vs. FENM (129S6/SvEv mice [3]; [8]): 0.7385
p, Distance Travelled Min 7 (cm), OF, (R,S)-ketamine vs. FENM (129S6/SvEv mice [3]; [8]): 0.4416
p, Distance Travelled Min 8 (cm), OF, (R,S)-ketamine vs. FENM (129S6/SvEv mice [3]; [8]): 0.7658
p, Distance Travelled Min 9 (cm), OF, (R,S)-ketamine vs. FENM (129S6/SvEv mice [3]; [8]): 0.8899
p, Distance Travelled Min 10 (cm), OF, (R,S)-ketamine vs. FENM (129S6/SvEv mice [3]; [8]): 0.9456
p, Distance Travelled Min 1 (cm), OF, Saline vs. drug (129S6/SvEv mice [3]; [9]): 0.0158
p, Distance Travelled Min 2 (cm), OF, Saline vs. drug (129S6/SvEv mice [3]; [9]): 0.0068
p, Distance Travelled Min 3 (cm), OF, Saline vs. drug (129S6/SvEv mice [3]; [9]): 0.4093
p, Distance Travelled Min 4 (cm), OF, Saline vs. drug (129S6/SvEv mice [3]; [9]): 0.4054
p, Distance Travelled Min 5 (cm), OF, Saline vs. drug (129S6/SvEv mice [3]; [9]): 0.1372
p, Distance Travelled Min 6 (cm), OF, Saline vs. drug (129S6/SvEv mice [3]; [9]): 0.5067
p, Distance Travelled Min 7 (cm), OF, Saline vs. drug (129S6/SvEv mice [3]; [9]): 0.4644
p, Distance Travelled Min 8 (cm), OF, Saline vs. drug (129S6/SvEv mice [3]; [9]): 0.0809
p, Distance Travelled Min 9 (cm), OF, Saline vs. drug (129S6/SvEv mice [3]; [9]): 0.0040
p, Distance Travelled Min 10 (cm), OF, Saline vs. drug (129S6/SvEv mice [3]; [9]): 0.5094
Open Field, Distance Travelled Min 1 (cm), p (Fisher's LSD) (129S6/SvEv mice [3]; [10]): 0.1253
Open Field, Distance Travelled Min 2 (cm), p (Fisher's LSD) (129S6/SvEv mice [3]; [10]): 0.0385
distance travelled in the OF (129S6/SvEv mice [3]; [11]): comparable
time in the center of the OF (129S6/SvEv mice [3]; [11]): comparable
time in the periphery of the OF (129S6/SvEv mice [3]; [11]): comparable
p, Distance Travelled (cm), OF, Saline vs. FENM (129S6/SvEv mice [3]; t-test, Baseline, anxiety cohort, FENM 20 mg/kg, FIG. 7C): 0.1878
p, Time in Center (sec), OF, Saline vs. FENM (129S6/SvEv mice [3]; t-test, Baseline, anxiety cohort, FENM 20 mg/kg, FIG. 7D): 0.1241
p, Time in Periphery (sec), OF, Saline vs. FENM (129S6/SvEv mice [3]; t-test, Baseline, anxiety cohort, FENM 20 mg/kg, FIG. 7E): 0.1225
latency to feed in the open arena (NSF) (129S6/SvEv mice [4]; [6]): did not alter
latency to eat in the NSF arena (129S6/SvEv mice [4]; [12]): did not alter
latency to eat in the homecage (NSF) (129S6/SvEv mice [4]; [12]): did not alter
latency to feed in the open arena (NSF) (129S6/SvEv mice [4]; [7]): but not FENM, increased
latency to feed in the home cage (NSF) (129S6/SvEv mice [4]; [13]): did not alter
latency to feed in the open arena (NSF) (129S6/SvEv mice [4]; [13]): did not alter
latency to feed in the open arena (NSF) (129S6/SvEv mice [4]; 5 minutes after CFC, re-exposure 5 days after training, (R,S)-ketamine 30 mg/kg, FENM 10, 20 or 30 mg/kg, vs saline): did not alter
latency to eat in the NSF arena (129S6/SvEv mice [4]; [14]): did not alter
latency to eat in the homecage (NSF) (129S6/SvEv mice [4]; [14]): did not alter
Novelty Suppressed Feeding, Latency to feed in OF (sec), p (Fisher's LSD) (129S6/SvEv mice [4]; (R,S)-ketamine (30 mg/kg) vs. FENM (20 mg/kg)): 0.0130
Behavior: Hypophagia (129S6/SvEv mice [4]; Baseline Anxiolytic, dose 20 mg/kg): ↓
p, Fraction of mice not eating in OF, NSF, Saline vs. FENM (129S6/SvEv mice [4]; Log-rank (Mantel-Cox) test, Baseline, anxiety cohort, FENM 20 mg/kg, FIG. 7J): 0.0210
p, Fraction of mice not eating in HC, NSF, Saline vs. FENM (129S6/SvEv mice [4]; Log-rank (Mantel-Cox) test, Baseline, anxiety cohort, FENM 20 mg/kg, FIG. 7K): 0.7953
Novelty Suppressed Feeding, Latency to feed in OF (sec), p (Fisher's LSD) (129S6/SvEv mice [4]; Saline vs. FENM (20 mg/kg)): 0.4585
latency to approach the pellet in the NSF arena (129S6/SvEv mice [4]; [11]): significantly decreased
latency to eat in the homecage (NSF) (129S6/SvEv mice [4]; [11]): did not alter
p, Change in Weight (g), NSF, Saline vs. FENM (129S6/SvEv mice [4]; t-test, Baseline, anxiety cohort, FENM 20 mg/kg, FIG. 7L): 0.1661
p, Food Eaten (g), NSF, Saline vs. FENM (129S6/SvEv mice [4]; t-test, Baseline, anxiety cohort, FENM 20 mg/kg, FIG. 7M): 0.0801
distance travelled in the EPM (129S6/SvEv mice [5]; 1 week prior to CFC, vs saline): did not alter
time spent in the open arms and center of the EPM (129S6/SvEv mice [5]; 1 week prior to CFC, vs saline): did not alter
distance travelled in the EPM (129S6/SvEv mice [5]; [15]): did not alter
time spent in the open arms and center of the EPM (129S6/SvEv mice [5]; [15]): did not alter
time in the open arms, closed arms, and center of the EPM (129S6/SvEv mice [5]; [11]): comparable
p, Time in Open Arms (sec), EPM, Saline vs. FENM (129S6/SvEv mice [5]; t-test, Baseline, anxiety cohort, FENM 20 mg/kg, FIG. 7G): 0.5729
p, Time in Closed Arms (sec), EPM, Saline vs. FENM (129S6/SvEv mice [5]; t-test, Baseline, anxiety cohort, FENM 20 mg/kg, FIG. 7H): 0.5729
p, Time in Center (sec), EPM, Saline vs. FENM (129S6/SvEv mice [5]; t-test, Baseline, anxiety cohort, FENM 20 mg/kg, FIG. 7I): 0.3211
